Measured values from patent US8841294B2, “Active ingredient combinations having insecticidal and acaricidal properties” (Bayer Cropscience AG, priority 1999, dated 2014).

How the values were obtained:
Format in all cases: in vivo
[1] = tested on: cotton aphid (Aphis gossypii); assay: Aphis gossypii test; details: single active compound, 1.6 ppm, cotton leaves dipped
Procedure: (§1) To produce a suitable preparation of active compound, 1 part by weight of active compound is mixed with the stated amounts of solvent and emulsifier, and the concentrate is diluted with water to the desired concentrations.
Cotton leaves (Gossypium hirsutum) which are heavily infested by the cotton aphid (Aphis gossypii) are treated by being dipped into the preparation of active compound of the desired concentration.
After the desired period of time, the kill in % is determined. 100% means that all aphids have been killed; 0% means that none of the aphids have been killed. The kill rates that are determined are assessed using Colby's formula.

[2] = tested on: larvae of the cotton aphid (Aphis gossypii); assay: Aphis gossypii test/larval mortality; details: single active compound, 1.6 ppm, cotton leaves dipped
Procedure: Aphis Gossypii Test/Larval Mortality
as §1
Cotton leaves (Gossypium hirsutum) which are heavily infested by adults and larvae of the cotton aphid (Aphis gossypii) are treated by being dipped into the preparation of active compound of the desired concentration.
After the desired period of time, the kill of larvae in % is determined. 100% means that all larvae have been killed; 0% means that none of the larvae have been killed. The kill rates that are determined are assessed using Colby's formula.

[3] = tested on: peach aphid (Myzus persicae); assay: Myzus test; details: single active compound, 1.6 ppm, cabbage leaves dipped
Procedure: as §1
Cabbage leaves (Brassica oleracea) which are heavily infested by the peach aphid (Myzus persicae) are treated by being dipped into the preparation of active compound of the desired concentration.
After the desired period of time, the kill in % is determined. 100% means that all animals have been killed; 0% means that none of the animals have been killed. The kill rates determined are assessed using Colby's formula.

[4] = tested on: larvae of the peach aphid (Myzus persicae); assay: Myzus test/larval mortality; details: single active compound, 0.32 ppm, cabbage leaves dipped
Procedure: Myzus Test/Larval Mortality
as §1
Cabbage leaves (Brassica oleracea) which are heavily infested by adults and larvae of the peach aphid (Myzus persicae) are treated by being dipped into the preparation of active compound of the desired concentration.
After the desired period of time, the kill of the larvae in % is determined. 100% means that all larvae have been killed; 0% means that none of the larvae have been killed. The kill rates determined are assessed using Colby's formula.

Row | Structure (SMILES) | Kill rates in % after 6d [1] [%] | Kill rate in % after 6d (larvae) [2] [%] | Kill rates in % after 1d [3] [%] | Kill rates in % after 1d (larvae) [4] [%]
1 | O=[N+]([O-])/N=C1\NCCN1Cc1ccc(Cl)nc1 [Ex. (IIa)] | 85 | 80 | 70 | 0
2 | N#C/N=C1\SCCN1Cc1ccc(Cl)nc1 [Ex. (IIk)] | 55 | 60 |  | 
3 | CCC(C)(C)C(=O)OC1=C(c2ccc(Cl)cc2Cl)C(=O)OC12CCCCC2 [Ex. (Ia)] | 0 | 0 | 0 | 0
